Measured values: patent publication US20180306775A1, “Portable Sampling Device and Method for Sampling Drug Substances From Exhaled Breath” (Sensa Bues AB, priority 2011, published 2018)

Tests used:
Assay type in all cases: in vivo, human
[1] = Sampling of methadone from exhaled breath using electrostatic filter membrane (250 g/m2 non-woven layer, two carriers); conditions: for Methadone Range: range among subjects
Protocol: (§1) Sampling of drugs of abuse from exhaled human breath using filter membrane.
The tests were performed at 4 different occasions.

[2] = Pre-study: sampling of methadone in breath using variable densities of the electrostatic filter membrane; conditions: exhaled breath, n=5; for Methadone Range: range among subjects
Excerpt: as §1
Type is the density of the non-woven layer at each test, the other headlines are the same as for table 1.

[3] = Sampling of methadone in exhaled breath with constructed sampler (tubular section with baffles), two filter thicknesses; conditions: for Constructed sampler Methadone Range: n=5
Excerpt: as §1
The subject exhales through the tubular section comprising baffles to trapping large particles and saliva.

[4] = filter diameter 32 mm, sampling time 1 min, n=6
[5] = filter diameter 32 mm, sampling time 3 min, n=5 (one of 4 occasions)
[6] = filter diameter 32 mm, sampling time 3 min, n=6 (one of 4 occasions)
[7] = filter diameter 47 mm, sampling time 3 min, n=6

CCC(=O)C(CC(C)N(C)C)(c1ccccc1)c1ccccc1 (stereo not drawn) [Methadone, methadone]
Methadone pg/min mean ± SD [1, 4]: 204 ± 116 pg/min | Methadone Range [1, 4]: 21 to 326 pg/min | Methadone pg/min mean ± SD [1, 5]: 112 ± 89 pg/min | Methadone pg/min mean ± SD [1, 6]: 92 ± 62 pg/min | Methadone Range [1, 5]: 47 to 266 pg/min | Methadone Range [1, 6]: 28 to 199 pg/min | Methadone pg/min mean ± SD [1, 7]: 86 ± 52 pg/min | Methadone Range [1, 7]: 18 to 168 pg/min | Methadone Range ([2]; filter type 150 g/m2): 24 to 216 pg/min | Methadone Range ([2]; filter type 250 g/m2): 19 to 231 pg/min | Methadone Range ([2]; filter type 300 g/m2): 20 to 287 pg/min | Methadone pg/min mean ± SD ([2]; filter type (density of non-woven layer) 150 g/m2): 74.4 ± 80.4 pg/min | Methadone pg/min mean ± SD ([2]; filter type (density of non-woven layer) 250 g/m2): 71.0 ± 90.1 pg/min | Methadone pg/min mean ± SD ([2]; filter type (density of non-woven layer) 300 g/m2): 91.8 ± 110 pg/min | Constructed sampler Methadone pg/min mean ± SD ([3]; filter thickness 1, n=5): 40 ± 27 pg/min | Constructed sampler Methadone Range ([3]; filter thickness 1, range among subjects): 12 to 85 pg/min | Constructed sampler Methadone pg/min mean ± SD ([3]; filter thickness 2, n=5): 42 ± 28 pg/min | Constructed sampler Methadone Range ([3]; filter thickness 2, range among subjects): 17 to 90 pg/min
